Our source for the Ki values is BindingDB's records for doi:10.1016/0014-2999(86)90335-3 (Janssen Pharmaceutica, 1986).

Test [1] addresses T1, Alpha-1A adrenergic receptor (Rattus norvegicus, UniProt P43140).
T1 sequence (P43140 whole entry): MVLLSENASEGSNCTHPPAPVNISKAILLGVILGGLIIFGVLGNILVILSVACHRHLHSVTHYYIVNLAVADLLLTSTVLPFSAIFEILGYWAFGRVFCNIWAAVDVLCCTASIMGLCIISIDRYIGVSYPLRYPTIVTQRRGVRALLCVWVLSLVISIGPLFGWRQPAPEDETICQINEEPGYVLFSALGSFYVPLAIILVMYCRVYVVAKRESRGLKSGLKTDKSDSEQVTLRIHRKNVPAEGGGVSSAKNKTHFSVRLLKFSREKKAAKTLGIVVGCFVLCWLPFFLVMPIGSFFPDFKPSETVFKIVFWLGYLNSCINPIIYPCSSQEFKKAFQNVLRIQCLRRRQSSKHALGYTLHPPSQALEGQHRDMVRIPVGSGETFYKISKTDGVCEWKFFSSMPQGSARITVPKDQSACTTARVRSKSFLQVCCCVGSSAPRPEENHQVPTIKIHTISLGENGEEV

In test [2] the target is T2, Alpha-2C adrenergic receptor (Rattus norvegicus, UniProt P22086).
T2 sequence (P22086 whole entry): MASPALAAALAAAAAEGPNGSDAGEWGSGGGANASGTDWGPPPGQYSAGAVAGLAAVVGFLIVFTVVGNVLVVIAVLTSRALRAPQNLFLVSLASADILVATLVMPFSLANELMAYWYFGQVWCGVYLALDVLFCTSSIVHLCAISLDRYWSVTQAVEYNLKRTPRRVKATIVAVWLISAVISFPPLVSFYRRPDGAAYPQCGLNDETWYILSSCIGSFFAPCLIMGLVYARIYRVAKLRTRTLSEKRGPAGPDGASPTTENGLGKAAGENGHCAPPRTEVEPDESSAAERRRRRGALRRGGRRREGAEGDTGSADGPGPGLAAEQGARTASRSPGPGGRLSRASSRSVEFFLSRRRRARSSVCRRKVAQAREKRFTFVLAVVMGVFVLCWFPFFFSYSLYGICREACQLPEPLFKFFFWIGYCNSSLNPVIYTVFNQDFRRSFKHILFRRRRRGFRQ

SMILES strings stand for the structures. Several values for one entry are separate records, joined by “and”; a condition that tells them apart may be missing. Equal values may be shown once.

With `CN1C[C@H](C(=O)N[C@]2(C)O[C@@]3(O)[C@@H]4CCCN4C(=O)[C@H](Cc4ccccc4)N3C2=O)C=C2c3cccc4[nH]cc(c34)C[C@H]21` [12'-hydroxy-2'-methyl-5'alpha-(phenylmethyl)ergotaman-3',6',18-trione], the inhibition constant Ki is 25 nM in test [1]; 12 nM and 4 nM and 3.5 nM and 6.3 nM in test [2].

As for `c1ccc(CC2=NCCN2)cc1` [Tolazoline], the inhibition constant (Ki) was 3200 nM in test [1]; 450 nM and 120 nM and 890 nM and 500 nM in test [2].

Consider `c1ccc2c(c1)OCC(C1=NCCN1)O2` (configuration not stated), for which, in test [1], the Ki came out at 1000 nM.

Turning to `O=C(c1ccc(F)cc1)C1CCN(CCn2c(=S)[nH]c3ccccc3c2=O)CC1`, the Ki in test [2] is 290 nM and 200 nM and 280 nM and 71 nM.

With `Cc1ccc2nc(C)c(CCN3CCC(C(=O)c4ccc(F)cc4)CC3)c(=O)n2c1` [CAS_72005], the inhibitory constant (Ki) is 7.9 nM in test [1]; 10 nM and 2.5 nM and 2.8 nM in test [2].

`N#Cc1ccc2c(c1)N(CCCN1CCC(O)CC1)c1ccccc1S2`: the inhibition constant Ki in test [1] was determined as 4.1 nM.

For `Cc1nc2ccccn2c(=O)c1CCN1CCC(C(=O)c2ccc(F)cc2)CC1`, the Ki is 20 nM in test [1]; 7.9 nM and 4.5 nM and 18 nM and 20 nM in test [2].

The compound `CS(=O)(=O)c1ccc2c(c1)N(CCCN1CCC(C(N)=O)CC1)c1ccccc1S2` [NSC_26388] returned an inhibition constant Ki in test [1] of 2.5 nM. This lies in the single-digit nanomolar range.

Regarding `O=C(c1ccc(F)cc1)C1CCN(CCCCn2c(=O)[nH]c3ccccc3c2=O)CC1` [CAS_87051-46-5], the Ki was 0.45 nM in test [1]; 500 nM and 400 nM and 66 nM and 60 nM in test [2].

As for `Cc1nc2n(c(=O)c1CCN1CCC(C(=O)c3ccc(F)cc3)CC1)CCS2` [CAS_86487-64-1], the affinity in test [1], expressed as Ki, was 32 nM. That is a double-digit nanomolar value.

For `CN1CCN(CC/C=C2/c3ccccc3Sc3ccc(S(=O)(=O)N(C)C)cc32)CC1` [MLS000028463], the inhibitory constant (Ki) in test [1] was 25 nM; in test [2], 1200 nM and 1400 nM.

One may read the Ki as the dissociation constant of the complex between target and ligand, obtained from inhibition or displacement. Lower therefore signals tighter binding.
